{
  "source": "patent US20130053430A1",
  "about": "“MODULATION OF CETP EXPRESSION” (Isis Pharmaceuticals, Inc., priority 2010, published 2013)",
  "key": {"[1]": {"experiment": "Plasma cholesterol and triglyceride levels, dose response (Example 9)", "format": "in vivo, mice", "settings": "50 mg/kg/wk", "method": "(§1) Another group received subcutaneous injections of control oligonucleotide ISIS 141923 at a dose of 50 mg/kg/week for 6 weeks. One group of mice received subcutaneous injections of PBS for 6 weeks. The PBS-injected group served as the control group to which treatment groups were compared.\nG. and Dyer, W. J. Can. J. Biochem. Physiol. 37: 911-917, 1959) and measured with an Olympus clinical analyzer (Hitachi Olympus AU400e, Melville, N.Y.). HDL and LDL cholesterol were individually measured by HPLC. Triglyceride levels were measured with the use of a commercially available triglyceride kit (DCL Triglyceride Reagent; Diagnostic Chemicals Ltd.). The results are presented in Tables 47-51 and are expressed in mg/dL."}, "[2]": {"test_system": "ApoA1", "experiment": "Liver ApoA1 mRNA expression (Example 9)", "format": "in vivo, mice", "settings": "percentage increase or decrease compared to PBS control; s.c. 6 weeks; Dose 50 mg/kg/wk", "method": "as §1\nLiver RNA was isolated for real-time PCR analysis of ABCA1, ApoAI, and SR-B1. ATP-binding cassette transporter ABCA1 (member 1 of human transporter sub-family ABCA), also known as the cholesterol efflux regulatory protein (CERP) is a protein which in humans is encoded by the ABCA1 gene (Luciani, M. F. et al., Genomics. 1994. 21: 150-9). This transporter is a major regulator of cellular cholesterol and phospholipid homeostasis. Apolipoprotein A-I is a protein that in humans is encoded by the APOA1 gene (Breslow, J. L. et al., Proc. Natl. Acad. Sci. USA 1982. 79: 6861-5). Apolipoprotein A-I is the major protein component of HDL in plasma. The protein promotes cholesterol efflux from tissues to the liver for excretion. Scavenger receptor class B, type I (SR-BI) is an integral membrane protein found in numerous cell types/tissues, including the liver and adrenal (Acton, S. L. et al., J. Biol. Chem. 1994. 269: 21003-21009). It is best known for its role in facilitating the uptake of cholesteryl esters from high-density lipoproteins in the liver. Therefore, all three genes have a role in HDL regulation.\nThe primer probe set RTS1204 (forward sequence […], designated herein as SEQ ID NO: 122, reverse sequence […], designated herein as SEQ ID NO: 123, probe sequence AGGCCCAGACCTGTAAAGGCGAAGX, with X a fluorophore, designated herein as SEQ ID NO: 124) was used to measure abca1 levels. The primer probe set RTS14737 (forward sequence […], designated herein as SEQ ID NO: 125, reverse sequence […], designated herein as SEQ ID NO: 126, probe sequence CTGCAGGAACGGCTGGGCCCX, with X a fluorophore, designated herein as SEQ ID NO: 127) was used to measure apoA1 levels. The primer probe set mSRB-1 (forward sequence […], designated herein as SEQ ID NO: 128, reverse sequence ATGCGACTTGTCAGGCTGG, designated herein as SEQ ID NO: 129, probe sequence CGTGGAGAACCGCAGCCTCCATTX, with X a fluorophore, designated herein as SEQ ID NO: 130) was used to measure sr-b1 levels. The results are presented in Table 44 as percentage increase or decrease in the respective expression levels compared to the PBS control. Both primer probe sets produced similar results. The RNA expression levels were normalized to murine Cyclophilin. Treatment with ISIS 349517 caused an increase in ApoA1 and SR-B1 levels."}},
  "note": "e = 2'-O-(2-methoxyethyl) (MOE); d = 2'-deoxy (DNA)",
  "data": [
    {"substance": "ISIS 141923: CCTTCCCTGAAGGTTCCTCC, 5-10-5 MOE gapmer, a control oligonucleotide which has no known murine target (sugars from the 5' end e5 d10 e5, backbone and methylation of C not given here) [reference compound]", "values": [
      {"measurement": "HDL cholesterol levels", "setting": "[1]; Week 0", "value": 87, "unit": "mg/dL"},
      {"measurement": "LDL cholesterol levels", "setting": "[1]; Week 0", "value": 54, "unit": "mg/dL"},
      {"measurement": "Total cholesterol levels", "setting": "[1]; Week 0", "value": 153, "unit": "mg/dL"},
      {"measurement": "Triglyceride levels", "setting": "[1]; Week 0", "value": 49, "unit": "mg/dL"},
      {"measurement": "% change in HDL levels compared to total cholesterol", "setting": "[1]; Week 3", "value": "−17", "unit": "%"},
      {"measurement": "HDL cholesterol levels", "setting": "[1]; Week 3", "value": 115, "unit": "mg/dL"},
      {"measurement": "LDL cholesterol levels", "setting": "[1]; Week 3", "value": 42, "unit": "mg/dL"},
      {"measurement": "Total cholesterol levels", "setting": "[1]; Week 3", "value": 164, "unit": "mg/dL"},
      {"measurement": "Triglyceride levels", "setting": "[1]; Week 3", "value": 58, "unit": "mg/dL"},
      {"measurement": "% change in HDL levels compared to total cholesterol", "setting": "[1]; Week 6", "value": "−23", "unit": "%"},
      {"measurement": "HDL cholesterol levels", "setting": "[1]; Week 6", "value": 124, "unit": "mg/dL"},
      {"measurement": "LDL cholesterol levels", "setting": "[1]; Week 6", "value": 47, "unit": "mg/dL"},
      {"measurement": "Total cholesterol levels", "setting": "[1]; Week 6", "value": 180, "unit": "mg/dL"},
      {"measurement": "Triglyceride levels", "setting": "[1]; Week 6", "value": 88, "unit": "mg/dL"},
      {"measurement": "Percent inhibition of liver mRNA expression, ApoA1", "setting": "[2]", "value": "−50", "unit": "%"}
    ]}
  ]
}
